The values below come from patent publication US9579358B2, “Compositions for binding to amyloid proteins” (LANCASTER UNIVERSITY BUSINESS ENTERPRISES LIMITED, priority 2011, dated 2017).

For test [1], the system named is SHSY-5Y neuroblastoma cells. As to the kind of experiment: LDH assay, protection against Aβ42-mediated toxicity. Conditions: 5 μM Aβ42 plus 0.1-10 μM peptide, 24 h. The test is classed as cell-based. As to the method: For cell toxicity assays (Example 3), SHSY-5Y neuroblastoma cells were maintained in 10% Fetal Calf Serum supplemented Dulbecco's Modified Eagle Medium (DMEM, Gibco) under standard mammalian cell culture conditions. The cells were transferred to sterile 96-well growth plates at 20,000 cells/well and 4 wells per condition. To test for any toxic effects of RI-OR2-TAT alone on the cells, they were left to adhere for 24 h before the addition of the inhibitor (at 12.5, 25, 50, 100 and 200 μM), in DMEM. To look at the ability of RI-OR2-TAT to protect against Aβ toxicity, the cell growth medium was changed to Optimem (Invitrogen) and Aβ42, pre-aggregated (at 100 μM) for 24 h at 25° C. in PBS, was added to the cells at a concentration of 5 μM, together with various amounts (0, 0.1, 0.5, 1, 5 or 10 μM) of RI-OR2-TAT. In each case, after a further 24 h incubation period, the viability of the cells was assessed using a CytoTox 96® Non-Radioactive Cytotoxicity Assay (LDH) Assay (Promega) kit.

In the next test the test system is APP/PS1 transgenic mice. As to the kind of experiment: Brain pathology after 21 days of treatment. The test is classed as in vivo. Conditions: 100 nMol/kg i.p. once daily. The text has this: APPswe/PS1ΔE9 mice with a C57Bl/6 background (APP/PS1 mice) were obtained from the Jackson lab (http://research.iax.org/repository/alzheimers.html). To determine if Flu-RI-OR2-TAT crosses the blood brain barrier (Example 4), 2 male 17-months-old APP/PS1 animals and 2 16-months-old C57BL6 animals were used. To look at the effects of RI-OR2-TAT on mouse brain pathology (Example 5), 8 female 10-months-old APP/PS1 mice were used. The animals were housed in single cages in a temperature controlled holding room (21.5° C.±1) with 12:12 h light and dark cycle. Food and water was available ad libitum.
For Example 5, 4 animals were injected intraperitonially (i.p.) with 0.9% NaCl (vehicle control) and the other 4 with RI-OR2-TAT (100 nMol/Kg in 0.9% NaCl) once daily, for 21 days. On the 22nd day, the animals were perfused transcardially with ice-cold PBS and 4% paraformaldehyde and then the brains were removed and post-fixed in 4% ice cold paraformaldehyde.
All brains in paraformaldehyde were transferred to 30% sucrose overnight and then snap frozen with Envirofreez™ (Sigma, UK) and, using a Leica cryostat, 40 microns thick coronal sections were cut at anatomical regions of −2 to −3 bregma. Sections were preserved in cryoprotect with the first section taken at random and then every 5th section afterwards.
For Example 5, to stain for activated microglia, an inflammation response marker, sections were pretreated with 0.05 M sodium citrate buffer, pH 9, and incubated at 90° C. for 30 mins and stained with anti Iba-1 (1:2000 dilution, Wako 016-20001, Germany). For the oxidative stress marker, DNA denaturation was carried out with 2N HCl and the sections were stained for 8-oxo guanine (1:200 dilution, MAB3560, Millipore). Young immature neurons were detected by immunostaining for doublecortin (1:200 dilution, sc-66911, Santa Cruz Biotechnology). Total plaque load was quantified by immunostaining for β-amyloid (1:200 dilution, Invitrogen, 71-5800).
All sections were visualized using an Axio Scope 1 fluorescence microscope (Zeiss, Germany). For quantification, two images per section were taken from the cortex area with a 10× objective for 8-oxo guanine and β-amyloid staining, and a 100× objective for Iba1 staining, with a minimum of 5 sections visualized per animal. Image analysis was performed using multi threshold plug in Image J (NIH, USA).
Human oligomerised Aβ was measured using a kit purchased from Invitrogen, according to the manufacturer's instructions. Briefly, the right hemispheres from the brains of transgenic APP/PS1 mice treated with RI-OR2-TAT, or controls, were pooled separately and homogenized. Quantification of total protein was determined using the Bradford protein assay and was measured on a Nanophotometer (Implen, Germany). The homogenates were centrifuged at 100,000 g at 4° C. for 1 h. The supernatant was then diluted 1:10 before carrying out the sandwich ELISA, which measures soluble Aβ oligomer levels, but not amyloid monomers, as detailed in the manufacturer's protocol. The final AR oligomer values were determined following normalization of total protein levels.

Non-standard residues stand in square brackets, D forms with d. Residues, ends and D or L forms follow the SMILES beside them.

As to `CC(=O)N[C@H](CCCNC(=N)N)C(=O)NCC(=O)N[C@H](Cc1ccccc1)C(=O)N[C@H](Cc1ccccc1)C(=O)N[C@@H](C(=O)N[C@H](CC(C)C)C(=O)N[C@H](CCCCN)C(=O)NCC(=O)N[C@H](CCCNC(=N)N)C(=O)N[C@H](CCCNC(=N)N)C(=O)N[C@H](CCCNC(=N)N)C(=O)N[C@H](CCCNC(=N)N)C(=O)N[C@H](CCC(N)=O)C(=O)N[C@H](CCCNC(=N)N)C(=O)N[C@H](CCCNC(=N)N)C(=O)N[C@H](CCCCN)C(=O)N[C@H](CCCCN)C(=O)N[C@H](CCCNC(=N)N)C(=O)NCC(=O)N[C@H](Cc1ccc(O)cc1)C(N)=O)C(C)C` [RI-OR2-TAT, Ac-rGffvlkGrrrrqrrkkrGy-NH2] (Ac-[dR]G[dF][dF][dV][dL][dK]G[dR][dR][dR][dR][dQ][dR][dR][dK][dK][dR]G[dY]-NH2), the “effect on Aβ42 toxicity to cells” value in test [1] was “inhibits the toxic effects of Aβ42”. For the same compound, in the test with APP/PS1 transgenic mice, the “increase of mean number of young doublecortin-expressing neurons in the dentate region” value turned out to be 210% and the “reduction of cortical level of 8-oxo-guanine immunostaining” value stood at 25%. For the same compound, in the test on APP/PS1 transgenic mice (Iba1 immunostaining), the “reduction of number of activated microglia in the cortex” value stood at 44%. Also, in the test on APP/PS1 transgenic mice (sandwich ELISA), the “reduction of soluble Aβ oligomer levels in the brain” value came to 25%. In addition, in the test on APP/PS1 transgenic mice (versus saline, β-amyloid immunostaining), the “reduction of amyloid plaque load in the cortex” value amounted to 32%.
